Key:
[1] = biological target: T1, β-arrestin2 recruitment to hA3R (Homo sapiens, UniProt P0DMS8); experiment: BRET β-arrestin2 recruitment to A3R, HEK 293T; assay type: cell-based
T1 construct: expressed in transfected cells; host or cells: HEK 293T (ATCC CRL-3216), transient

rA3R [2] = biological target: T2, rA3R (Rattus norvegicus, UniProt P28647); experiment: NanoBRET competition binding with AV039; conditions: displacement of AV039; read-out: pKi rA3R (converted)
T2 construct: expressed in transfected cells; host or cells: Flp-In-CHO (ThermoFisher R75807), pcDNA5/FRT
T2 sequence (P28647 1-320): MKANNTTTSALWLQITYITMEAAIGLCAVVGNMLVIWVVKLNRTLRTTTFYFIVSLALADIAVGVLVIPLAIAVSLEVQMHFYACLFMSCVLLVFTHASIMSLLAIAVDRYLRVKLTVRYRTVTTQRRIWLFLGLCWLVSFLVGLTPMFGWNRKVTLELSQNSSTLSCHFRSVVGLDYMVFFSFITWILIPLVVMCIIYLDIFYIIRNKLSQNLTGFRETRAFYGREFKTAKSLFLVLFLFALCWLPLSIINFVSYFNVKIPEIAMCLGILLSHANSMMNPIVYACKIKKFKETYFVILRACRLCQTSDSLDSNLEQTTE
Procedure: Here data was fitted with the ‘two-site Ki model’, build into Prism to determine high affinity and low affinity values for the unlabelled agonists. […] BRET was measured following the addition of the Nluc substrate, Furimazine (0.1 μM).

[3] = test system: heart rate and mean arterial blood pressure; experiment: Urethane-anaesthetised rat, heart rate and arterial blood pressure; conditions: adenosine 1 mg kg^−1 IV
Excerpt: Anaesthesia was induced in adult male Sprague–Dawley rats (230-330 g) with isofluorane (2–4%; Piramal Healthcare). The femoral vein was catheterised for drug delivery. Anaesthesia was maintained with urethane (1.2–1.7 g kg^−1; Sigma) in sterile saline delivered via the femoral vein catheter. […] The trachea was cannulated and the femoral artery catheterised, and both were connected to pressure transducers (Digitimer) to record respiratory airflow and arterial blood pressure, respectively. Blood pressure and airflow signals were amplified using the NeuroLog system (Digitimer) connected to a micro1401 interface and acquired on a computer using Spike2 software (v7.08a; Cambridge Electronic Design). […] Airflow measurements were used to calculate: tidal volume (VT; mL; pressure sensors were calibrated with a 3 mL syringe), and respiratory frequency (f; breaths min^−1; BrPM). Minute ventilation (VE; mL min^−1) was calculated as f × VT.
Cardiovascular and respiratory parameters were allowed to stabilise before experiments began. A1R agonists were administered by intravenous (IV) injection and the changes in HR, MAP, f, VT, and VE were measured. […] All injections were administered IV as a 350 µl·kg^-1 bolus.

rA3R [4] = biological target: T2, rA3R; experiment: cAMP inhibition at rA3R (Flp-In-CHO); assay type: cell-based
Excerpt: Cell lines were maintained using standard subculturing routines as guided by the European Collection of Cell Culture (ECACC) and checked annually for mycoplasma infection using an EZ-PCR mycoplasma test kit from Biological Industries (Kibbutz Beit-Haemek, Israel). To investigate the signalling properties of the rat A3R (rA3R) and mutants of the human A1R (hA1R), stable cell lines were generated using Flp-In-CHO cells (ThermoFisher - R75807). Untagged hA1R from sigNanoLuciferase (Nluc)-A1R in pcDNA3.1+ and untagged rA3R from sigNluc-A3R in pcDNA3.1 + (both gifted by Dr Steve Briddon (University of Nottingham)) were cloned into the pcDNA5/FRT expression vector (Thermo Fisher Scientific). Mutations within the hA1R were made using the QuikChange Lightening Site-Directed Mutagenesis Kit (Agilent Technologies) in accordance with the manufacturer’s instructions. Constructs for generating Goa/b interfering and scrambled peptides were generated by PCR and cloned into the BamHI/HindIII site of pcDNA3.1- as described in Gilchrist et al.[60],. Prior to the initiator codon a Kozak sequence was included for enhanced translation. The peptide sequences used were: for Goa […], for Gob […], and for the scrambled peptide […] was used. Constructs were sequenced to confirm fidelity. Flp-In-CHO cells were generated through co-transfection of the cell line with pcDNA5/FRT expression vector (Thermo Fisher Scientific) containing the WT or mutant hA1R, or rA3R, and the Flp recombinase expressing plasmid, pOG44 (Thermo Fisher Scientific), in accordance with the manufacturer’s instructions. […] CHO cell lines expressing ARs of interest (including mutants of the hA1R) were routinely cultured in Ham’s F-12 nutrient mix supplemented with 10% foetal bovine serum (FBS), at 37 °C with 5% CO2, in a humidified atmosphere.

frog heart = experiment: Isolated frog heart preparation, heart rate; conditions: adenosine 30 µM
Procedure: Young adult male Xenopus leavis frogs were obtained from Portsmouth Xenopus Resource Centre. […] The animals were dissected to reveal the heart and the pericardium was carefully removed. Heart contractions were measured with a force transducer (AD instruments). Heart rate was acquired via a PowerLab 26 T (AD instruments) controlled by LabChart 7 (AD instruments). The heart was regularly washed with Ringer solution and drugs were applied directly to the heart.

[5] = test system: native presynaptic A1Rs, rat hippocampal slices; experiment: Extracellular fEPSP recording, inhibition of excitatory synaptic transmission in hippocampal slices; assay type: cell-based
Procedure: Rats were kept on a 12-hour light-dark cycle with slices made 90 min after entering the light cycle. […] The brain was removed, cut down the midline and the two sides of the brain stuck down to a metal base plate using cyanoacrylate glue. […] Slices were stored at 34 °C for 1–6 h in aCSF (1 mM MgCl2, 2 mM CaCl2) before use.
A slice was transferred to the recording chamber, submerged in aCSF and perfused at 4–6 ml min^−1 (32 ± 0.5 °C). The slice was placed on a grid allowing perfusion above and below the tissue and all tubing was gastight (to prevent loss of oxygen). […] Field excitatory postsynaptic potentials (fEPSPs) were evoked with either an isolated pulse stimulator model 2100 (AM Systems, WA) or ISO-Flex (AMPI, Jerusalem, Israel). For fEPSPs a 10–20 min baseline was recorded at a stimulus intensity that gave 40-50% of the maximal response. […] For fEPSP slope, a 1 ms linear region after the fibre volley was measured. Extracellular recordings were made independently on two electrophysiology rigs.
Statistical significance was tested as indicated in the text using paired or unpaired two-tailed t-tests or one-way or two-way ANOVAs with repeated measures (RM) as appropriate. Bonferroni corrections for multiple comparisons were performed. All in vitro cell signalling assay data was analysed using Prism 8.4 (Graphpad software, San Diego, CA), with all concentration-response curves being fitted using a 3 parameter logistic equation to calculate response range and IC50. All cAMP data was normalised to a forskolin concentration-response curve ran in parallel to each assay.

[6] = test system: CA1 pyramidal cells (Goa / Gob signalling); experiment: Whole-cell voltage-clamp, adenosine-induced outward current with intracellular G protein interfering peptides; assay type: cell-based, rat; conditions: adenosine 10 µM; control conditions
Procedure: A slice was transferred to the recording chamber and perfused at 3 ml min^−1 with aCSF at 32 ± 0.5 °C. Slices were visualised using IR-DIC optics with an Olympus BX151W microscope (Scientifica) and a CCD camera (Hitachi). […] Voltage and current recordings were obtained using an Axon Multiclamp 700B amplifier (Molecular Devices, USA) and digitised at 20 KHz. Data acquisition and analysis was performed using pClamp 10 (Molecular Devices, USA). For voltage-clamp experiments, CA1 pyramidal cells were held at −60 mV. Peptides to interfere with G protein signalling were introduced via the patch pipette into the recorded cell.
Drugs were made up as stock solutions (1-10 mM) and then diluted in aCSF or saline on the day of use. […] MRS1523 was purchased from Cayman Chemicals (Cambridge Bioscience Ltd., Cambridge UK). […] CA200645 and peptides for interfering with G protein signalling were obtained from Hello Bio (Bristol, UK) and were based on published sequences. […] The scrambled version was […]. […] Peptides were made up as stock solutions (2 mM) and stored at −20 °C. The stock solutions were dissolved in filtered intracellular solution just before use.

in vitro = conditions: human, plasma
Procedure: (§1) At the end of incubation at each of the time points (0, 0.5, 1, 1.5, 2 h), acetonitrile was added to the incubation mixture followed by centrifugation. Samples were analysed by HPLC-MS/MS and peak areas were recorded for each analyte. The area of precursor compound remaining after each of the time points relative to the amount remaining at time 0, expressed as a percentage, was calculated. Subsequently, the t1/2 is estimated from the slope of the initial linear range of the logarithmic curve of compound remaining (%) versus time, assuming first-order kinetics.

[7] = Half-life determination in human plasma; conditions: UoBern01 at 1.00E-06 M
Procedure: as §1

[8] = Half-life determination in PBS; assay type: physicochemical; conditions: PBS, pH 7.4
Procedure: […] Samples were analysed by HPLC-MS/MS and corresponding peak areas were recorded for each analyte. The ratio of precursor compound remaining after each time-point relative to the amount present at time 0, expressed as a percentage, is reported as chemical stability.

[9] = incubation 0 minutes, UoBern01 at 1.00E-06 M
[10] = incubation 60 minutes, UoBern01 at 1.00E-06 M
[11] = incubation 120 minutes, UoBern01 at 1.00E-06 M

T1 sequence (P0DMS8 whole entry): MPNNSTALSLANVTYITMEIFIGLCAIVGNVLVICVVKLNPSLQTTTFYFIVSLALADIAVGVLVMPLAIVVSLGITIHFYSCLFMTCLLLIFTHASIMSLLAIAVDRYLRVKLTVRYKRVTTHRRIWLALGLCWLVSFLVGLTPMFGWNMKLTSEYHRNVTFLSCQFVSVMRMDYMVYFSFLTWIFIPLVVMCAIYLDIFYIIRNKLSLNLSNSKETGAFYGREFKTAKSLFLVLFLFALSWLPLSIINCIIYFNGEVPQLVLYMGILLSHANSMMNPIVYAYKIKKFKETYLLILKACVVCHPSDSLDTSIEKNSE

Nc1ncnc2c1ncn2[C@@H]1O[C@H](CO)[C@@H](O)[C@H]1O [Adenosine]
β-arrestin2 recruitment by the A3R [1]: β-arrestin2 recruitment | Ki (rA3R [2]): 1290 nM | reduction of HR [3]: ~ 66% | reduction of MAP [3]: ~ 47% | MAP after injection ([3]; resting 86 ± 9 mm Hg): 46 ± 4 mm Hg | HR after injection ([3]; resting 432 ± 21 BPM): 147 ± 12 BPM | IC50 (rA3R [4]; half-maximal response, cAMP inhibition, read-out: pIC50 rA3R (converted)): 67.6 nM | Range rA3R (rA3R [4]; range of response as percentage of response to 10 μM forskolin): 66.05 ± 5.4% | reduction of heart rate (frog heart): 6.3 ± 0.6 BPM | heart rate after application (frog heart; before 41.8 ± 1.3 BPM): 35.5 ± 1.3 BPM | IC50 ([5]; Rattus norvegicus, read-out: IC50 inhibition of synaptic transmission): 20000 ± 4300 nM | depression of the fEPSP ([5]; adenosine 30 µM): 66.7 ± 6.7% | depression of the fEPSP ([5]; adenosine 30 µM in the presence of 2-Cl-IB-MECA 1 µM): 67.5 ± 6.5% | outward current induced by adenosine [6]: 40.6 ± 2.2 pA

CC(C)[N+](C)(CCOC(=O)C1c2ccccc2Oc2ccccc21)C(C)C [Propantheline]
half-life (in vitro): 46.9 min | 2nd / Half-Life [7]: 50.4 min | Mean / Half-Life [7]: 49 min | 1st / % Compound Remaining ([7]; incubation 0 minutes): 100% | 2nd / % Compound Remaining ([7]; incubation 0 minutes): 100% | Mean / % Compound Remaining ([7]; incubation 0 minutes): 100% | 1st / % Compound Remaining ([7]; incubation 30 minutes): 69.6% | 2nd / % Compound Remaining ([7]; incubation 30 minutes): 53.9% | Mean / % Compound Remaining ([7]; incubation 30 minutes): 61.7% | 1st / % Compound Remaining ([7]; incubation 60 minutes): 44.8% | 2nd / % Compound Remaining ([7]; incubation 60 minutes): 36.9% | Mean / % Compound Remaining ([7]; incubation 60 minutes): 40.9% | 1st / % Compound Remaining ([7]; incubation 90 minutes): 29.3% | 2nd / % Compound Remaining ([7]; incubation 90 minutes): 22.6% | Mean / % Compound Remaining ([7]; incubation 90 minutes): 26% | 1st / % Compound Remaining ([7]; incubation 120 minutes): 16.8% | 2nd / % Compound Remaining ([7]; incubation 120 minutes): 19.6% | Mean / % Compound Remaining ([7]; incubation 120 minutes): 18.2% | Mean / Half-Life ([8]; UoBern01 at 1.00E-06 M): >120 min | 1st / % Compound Remaining [8, 9]: 100% | 2nd / % Compound Remaining [8, 9]: 100% | Mean / % Compound Remaining [8, 9]: 100% | 1st / % Compound Remaining ([8]; incubation 30 minutes): 95.1% | 2nd / % Compound Remaining ([8]; incubation 30 minutes): 97.9% | Mean / % Compound Remaining ([8]; incubation 30 minutes): 96.5% | 1st / % Compound Remaining [8, 10]: {129.3} % | 2nd / % Compound Remaining [8, 10]: 96.1% | Mean / % Compound Remaining [8, 10]: 96.1% | 1st / % Compound Remaining ([8]; incubation 90 minutes): 86.5% | 2nd / % Compound Remaining ([8]; incubation 90 minutes): 89.2% | Mean / % Compound Remaining ([8]; incubation 90 minutes): 87.8% | 1st / % Compound Remaining [8, 11]: {72.3} % | 2nd / % Compound Remaining [8, 11]: 76.6% | Mean / % Compound Remaining [8, 11]: 76.6% | half-life ([8]; read-out: 1st / Half-Life): > 120 min

From publication PMC9293909 (Nature Communications, 2022)
